Test results published in publication PMC10669220, “In Vitro α-Glucosidase and α-Amylase Inhibition, Cytotoxicity and Free Radical Scavenging Profiling of the 6-Halogeno and Mixed 6,8-Dihalogenated 2-Aryl-4-methyl-1,2-dihydroquinazoline 3-Oxides” (Antioxidants, 2023).
“And” between values parts separate entries of the source, which are not always exact repeats. Identical values can stand only once.

How the values were obtained:
[1] = target: T1, α-Glucosidase type 1 from baker's yeast (Saccharomyces cerevisiae, UniProt P53341); assay: biochemical; settings: IC50 α-Glucosidase, mean ± SD, triplicate; tested at 1, 5, 10, 25, 50 µM
T1 construct: purchased Sigma Aldrich (Pty) Ltd. G5003
Procedure: The assay was conducted in triplicate following a method described in our previous study. […] After pre-incubation, 17 µL of 2 mM PNP-G was added. The absorbances were recorded in a 96-well microplate at 400 nm using an Elisa plate reader (Varioskan Flash, ThermoFischer Scientific, Vantaa, Finland). The average values obtained from the readings were used to determine the IC50 and standard deviation values using a GraphPad Prism software (Version 8, GraphPad Software Inc., San Diego, CA, USA). The average values obtained from the absorbance readings were used to determine the IC50 and standard deviation values in GraphPad prism from nonlinear regression dose–response curves.

[2] = target: T2, human α-amylase (Homo sapiens, UniProt P04746); assay: α-amylase inhibitor screening kit assay; assay type: biochemical; settings: mean ± SD, triplicate; tested at 1, 5, 10, 25, 50 µM
T2 construct: purchased Abcam ab283391
T2 sequence (P04746 16-511): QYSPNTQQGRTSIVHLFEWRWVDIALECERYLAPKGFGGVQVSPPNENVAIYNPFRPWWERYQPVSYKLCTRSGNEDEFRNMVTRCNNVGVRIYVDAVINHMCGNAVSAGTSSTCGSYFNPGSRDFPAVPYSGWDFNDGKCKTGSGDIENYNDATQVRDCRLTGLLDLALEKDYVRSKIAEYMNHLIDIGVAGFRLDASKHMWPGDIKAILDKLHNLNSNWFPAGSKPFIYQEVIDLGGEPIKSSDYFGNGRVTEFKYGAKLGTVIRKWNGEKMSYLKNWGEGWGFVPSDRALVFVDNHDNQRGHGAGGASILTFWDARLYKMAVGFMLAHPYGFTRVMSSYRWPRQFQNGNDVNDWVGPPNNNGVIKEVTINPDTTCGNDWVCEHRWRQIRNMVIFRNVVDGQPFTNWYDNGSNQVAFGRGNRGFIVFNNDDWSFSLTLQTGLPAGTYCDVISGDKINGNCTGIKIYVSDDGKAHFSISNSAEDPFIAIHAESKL
Procedure: The α-amylase assay was performed in triplicate, using a 96-well plate following the procedure recommended by the manufacturer as outlined in the α-amylase inhibitor Screening Kit (Catalogue No. ab283391; Abcam). […] The average values obtained from the absorbance readings were used to determine the IC50 and standard deviation values in GraphPad prism from nonlinear regression dose–response curves.

[3] = DPPH radical scavenging assay; settings: mean ± SD; 45 min in the dark; 512 nm
Procedure: The DPPH radical scavenging assay was conducted following the procedure described in our previous study. The test compounds and ascorbic acid at various concentrations (ranging from 0 µM to 50 µM) in DMSO were mixed with a solution of DPPH (0.20 mM) in methanol and incubated in the dark for 45 min. Five absorbance readings were recorded at 512 nm using an Elisa plate reader (Varioskan Flash, ThermoFisher Scientific, Vantaa, Finland). The experiment was carried out in triplicate, and averaged values from the absorbance readings were used to determine the IC50 and standard deviation values in GraphPad prism from nonlinear regression dose–response curves.

[4] = NO free radical scavenging assay (sodium nitroprusside/Griess); settings: mean ± SD; sodium nitroprusside, Griess reagent, 550 nm
Procedure: The assay was conducted following the method described in our previous study. A mixture of 10 mM sodium nitroprusside (20 µL), phosphate buffer (5 µL) and the test compound (5 µL) were incubated at 25 °C in a 96-well plate for 2.5 h. After incubation, 20 µL of Griess reagent (1.00 g of sulfanilic acid + 0.10 g naphthylethylene diamine dihydrochloride) was added to the previous mixture and allowed to stand for 30 min. […] Each experiment was performed in triplicate, and the average was taken. The average obtained from the absorbance readings was used to calculate the IC50 values in GraphPad prism from nonlinear regression dose–response curves.

[5] = test system: NO generated from nitric oxide synthase (NOS); assay: Inhibitory activity against NO generated from NOS (EnzyChrom kit); assay type: biochemical; settings: mean ± SD, 1-50 µM
Procedure: A nitric oxide synthase (NOS) assay was performed following the procedure recommended by the manufacturer as outlined in the screening kit (Catalogue No. EINO-100; EnzyChrom). Various concentrations (1, 5, 10, 25 and 50 µM) of the compounds 3a, 3c, 3f, 3i, 3l, 3n and 3p and the reference standard, ascorbic acid, were prepared. The enzyme solution (12.5 U/mL NOS, 10 µL), assay buffer (25 µL) and test samples (5 µL) were incubated at room temperature for 15 min. After pre-incubation, 10 µL of reaction mix was added and incubated at 37 °C for 60 min. A 200 µL quantity of NO detection reagent was added, the detection reaction was run at 37 °C for 60 min, and absorbance was determined at a wavelength of 540 nm using an Elisa plate reader (Varioskan Flash, ThermoFisher Scientific, Vantaa, Finland). The average of three readings was used to calculate the NOS percentage inhibition using the following formula: % Inhibition=1−ΔOD Test Compd/ΔOD No Inhibitor ×100%
The IC50 values and standard deviation values were determined from nonlinear regression dose–response curve and compared with the results in GraphPad prism.

[6] = target: superoxide dismutase (SOD); assay: Superoxide dismutase (SOD) inhibitory assay (SOD assay kit-WST); assay type: biochemical; settings: duplicate; 1-50 µM; 25 °C, 30 min; read-out: IC50 SOD inhibition
Procedure: The antioxidant activity of the compounds 3a, 3c, 3f, 3i, 3l, 3n and 3p against superoxide radicals was assessed via enzymatic assay in vitro using the SOD assay kit-WST according to the manufacturer’s instructions (Sigma-Aldrich®). The reaction mixtures in the SOD kit were combined with 20 μL of working solution of the samples in a 96-well plate. Plates were gently shaken and then incubated at 25 °C for 30 min. The reference positive control, diphenyleneiodonium (DPI), and the compounds were tested at 01, 5, 10, 25 and 50 µM in duplicates. The inhibition activity of SOD on the reaction of […] generated the superoxide with a tetrazolium salt, which was then determined by measuring the absorbance of the mixtures at a wavelength of 450 nm using an Elisa plate reader (Varioskan Flash, ThermoFisher Scientific, Vantaa, Finland). The SOD activity values obtained used to calculate the percentage of inhibition. % SOD activity=ODx− ODy/ODx ×100% where ODx is the absorbance of the blank (untreated SOD) and ODy is the absorbance of the sample (treated SOD). All tests were performed in duplicate.

[7] = test system: lung cancer (A549) cell line; assay: MTT cytotoxicity assay, A549; settings: for Cell viability percentage, A549: Table S3; for IC50: Homo sapiens, A549, read-out: IC50 A549
Procedure: (§1) Cells were cultured in sterile Dulbecco’s Minimal Essential Medium (DMEM, Gibco) supplemented with 10% fetal bovine serum (FBS) and 1% penicillin-streptomycin solution. […] Cell counting was carried out using a handheld automated cell counter (Scapter 3.0™, Merck, Burlington, MA, USA) and seeded (1 × 10^4 cells/well) into a 96-well plate. After 24 h, the cells were treated with different concentrations (1, 5, 10, 25 and 50 µM) of the test compounds and reference standards prepared in DMEM. The MTT solution (20 μL) prepared in PBS (5 mg/mL) was added to all the wells, and the plates were incubated for 4 h, followed by 1 h incubation with 100 µL of dimethyl sulfoxide (DMSO) to dissolve the formazan crystals. Untreated cells and 5% DMSO were included in the experiment as negative controls. All experiments were performed in triplicate. The plates were read at 570 nm at a reference wavelength of 630 nm using an ELISA plate reader (Varioskan Flash, ThermoFisher Scientific, Vantaa, Finland). The percentage of cell viability was calculated using the following formula, Cell viability %=At/Ab×100 where At represents the absorbance value of test compound and Ab the absorbance value of the blank. […] The data were expressed as means ± SD.

[8] = test system: breast cancer (MCF-7) cell line; assay: MTT cytotoxicity assay, MCF-7; settings: for Cell viability percentage, MCF-7: Table S2; for IC50: Homo sapiens, MCF7, read-out: IC50 MCF-7
Procedure: as §1

[9] = MTT cytotoxicity assay, HEK293-T; settings: human, HEK293-T cells
Procedure: as §1

[10] = test system: human embryonic kidney (HEK293-T) cell line; assay: MTT cytotoxicity assay, HEK293-T; settings: Homo sapiens, HEK-293T, read-out: IC50 Hek293-T
Procedure: as §1

T1 sequence (P53341 whole entry): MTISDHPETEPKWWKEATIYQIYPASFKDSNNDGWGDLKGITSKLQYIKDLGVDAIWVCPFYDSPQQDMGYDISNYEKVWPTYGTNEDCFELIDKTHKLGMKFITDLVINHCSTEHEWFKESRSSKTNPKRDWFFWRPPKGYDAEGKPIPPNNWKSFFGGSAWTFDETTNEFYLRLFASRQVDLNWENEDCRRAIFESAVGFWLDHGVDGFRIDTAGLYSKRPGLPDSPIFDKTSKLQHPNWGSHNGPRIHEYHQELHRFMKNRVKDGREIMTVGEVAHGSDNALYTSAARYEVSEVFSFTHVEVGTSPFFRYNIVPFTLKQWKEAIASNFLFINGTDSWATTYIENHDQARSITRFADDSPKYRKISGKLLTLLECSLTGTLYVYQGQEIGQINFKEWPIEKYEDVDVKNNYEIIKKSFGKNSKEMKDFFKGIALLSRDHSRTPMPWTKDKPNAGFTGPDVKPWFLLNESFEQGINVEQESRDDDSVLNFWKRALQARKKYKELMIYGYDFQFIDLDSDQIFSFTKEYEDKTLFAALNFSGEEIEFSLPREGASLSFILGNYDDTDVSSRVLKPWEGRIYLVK

Row | SMILES | IC50 [1] | IC50 [2] | IC50 [3] | IC50 [4] | IC50 [5] | IC50 [6] | melting point | Cell viability percentage, A549 ([7]; Conc. 1 (µM per method)) | Cell viability percentage, A549 ([7]; Conc. 5 (µM per method)) | Cell viability percentage, A549 ([7]; Conc. 10 (µM per method)) | Cell viability percentage, A549 ([7]; Conc. 25 (µM per method)) | Cell viability percentage, A549 ([7]; Conc. 50 (µM per method)) | IC50 [7] | Cell viability percentage, MCF-7 ([8]; Conc. 1 (µM per method)) | Cell viability percentage, MCF-7 ([8]; Conc. 5 (µM per method)) | Cell viability percentage, MCF-7 ([8]; Conc. 10 (µM per method)) | Cell viability percentage, MCF-7 ([8]; Conc. 25 (µM per method)) | Cell viability percentage, MCF-7 ([8]; Conc. 50 (µM per method)) | IC50 [8] | viability at 1 µM [9] | other results
1 | COc1ccc(C2Nc3c(I)cc(Br)cc3C(C)=[N+]2[O-])cc1 (stereo not shown) [Compound 3l] | 0.92 µM and 1.04 µM | 54.18 ± 0.01 µM | 27.7 ± 0.04 µM | 67.81 ± 0.004 µM | 1.06 ± 0.005 µM | 5.6 ± 0.17 µM | 153 to 155 °C | 89,6276% | 82,1465% | 60,333% | 45,5732% | 45,4944% | 16.34 ± 0.06 µM | 66,3742% | 55,5856% | 51,5919% | 35,1896% | 17,5102% | 18.12 ± 0.1 µM | 80.4% | viability at 5 µM [9]: 69.4%; viability at 10 µM [9]: 59.2%; viability at 25 µM [9]: 25.5%; viability at 50 µM [9]: 19.7%; IC50 [10]: 32.39 ± 0.17 µM
2 | CC1=[N+]([O-])C(c2ccc(Cl)cc2)Nc2ccc(Br)cc21 (stereo not shown) [Compound 3c] | 1.04 µM and 0.92 µM | 30.48 ± 0.02 µM | 33.52 ± 0.025 µM | 7.45 ± 0.002 µM | 1.1 ± 0.003 µM | 4.6 ± 0.14 µM | 171 to 173 °C | 73,4391% | 66,5879% | 54,3481% | 41,782% | 29,5534% | 15.26 ± 0.09 µM | 46,7898% | 44,7938% | 42,5981% | 41,6999% | 37,2256% | 25.48 ± 0.08 µM | 64.7% | viability at 5 µM [9]: 62.9%; viability at 10 µM [9]: 50.3%; viability at 25 µM [9]: 34.2%; viability at 50 µM [9]: 23.5%; IC50 [10]: 27.54 ± 0.05 µM
3 | CC1=[N+]([O-])C(c2ccc(F)cc2)Nc2c(Br)cc(I)cc21 (stereo not shown) [Compound 3n] | 43.23 ± 0.05 µM | 4.71 ± 0.01 µM | 6.84 ± 0.009 µM | 0.88 ± 0.004 µM | 3.5 ± 0.01 µM | 6.2 ± 0.12 µM | 125 to 127 °C | 79,9753% | 73,2703% | 62,0205% | 43,4807% | 30,3521% | 17.22 ± 0.07 µM | 34,8969% | 33,2335% | 31,9528% | 31,7365% | 30,1896% | 14.79 ± 0.1 µM | 75.1% | viability at 5 µM [9]: 70.1%; viability at 10 µM [9]: 54.1%; viability at 25 µM [9]: 39.6%; viability at 50 µM [9]: 20.5%; IC50 [10]: 32.42 ± 0.06 µM
4 | CC1=[N+]([O-])C(c2ccccc2)Nc2ccc(Br)cc21 (stereo not shown) [Compound 3a] | 1.08 ± 0.02 µM | 5.33 ± 0.01 µM | 4.74 ± 0.027 µM | 27.34 ± 0.04 µM | 5.24 ± 0.002 µM | 15 ± 10 µM | 158 to 160 °C | 66,8354% | 57,3068% | 54,0443% | 41,1182% | 30,5771% | 15.84 ± 0.07 µM | 26,2641% | 26,1144% | 23,187% | 22,3387% | 19,6607% | 10.83 ± 0.09 µM | 69.4% | viability at 5 µM [9]: 63.4%; viability at 10 µM [9]: 57.8%; viability at 25 µM [9]: 55.1%; viability at 50 µM [9]: 19%; IC50 [10]: 40.18 ± 0.02 µM
